{"source": "patent US20100222293A1", "about": "“MODULATION OF SPERM MOTILITY” (priority 2007, published 2010)", "test_system": "sperm from asthenozoospermic subjects", "test": "Sperm motility parameters after incubation with extracellular ATP (automated cell motility analyzer)", "type": "cell-based, human", "details": "2.5 mM ATP, 60 minutes", "method": "Semen samples were collected after 3 days of sexual abstinence in sterile containers. After liquefaction at room temperature for 30 minutes, standard seminal parameters were examined according to the WHO laboratory manual [supra]. For sperm movement analysis, a semen aliquot (10 μl) was placed in a Makler chamber, ten different fields per chamber were randomly examined, and at least 100 sperm for each field of the chamber were scored. Percentages of motile sperm and movement characteristics were analysed using an automated analyzer at 37° C. (CellTrack VP110, Motion Analysis Corporation, Palo Alto, Calif., USA). Sperm velocity and kinetic parameters were evaluated for only motile sperm and were expressed as mean values. Standard deviations were calculated and P values of significance were determined by the Student's t-test. The following sperm parameters were determined: curvilinear velocity (VCL) (also referred to as track speed and is the velocity (in μm/sec) of a sperm along individual tracks; straight progressive velocity (VSL) (the average velocity (in μm/sec) measured in a straight line from the beginning to the end of track); amplitude of lateral head displacement (ALH) (mean width (in μm) of sperm head oscillation); and linearity coefficient (LIN=VSL/VCL×100) (the degree (in %) of straightness of the sperm track). To analyze the effects of extracellular ATP on motility parameters of sperm from the asthenozoospermic subjects, sperm samples from the subjects were washed once by the addition of BWW medium (Biggers-Whitten-Whittingham medium; 95 mM NaCl, 4.8 mM KCl, 1.7 mM CaCl2, 1.2 mM KH2PO4, 1.2 MgSO4, 25 NaHCO3, 5.6 mM fructose, 0.25 mM sodium pyruvate, 3.7 ml/l 60% sodium lactate syrup, 10^4 IU/ml penicillin, and 10 mg/ml streptomycin) and centrifugation at 800×g for 10 minutes. After centrifugation and discarding of the supernatant, the sperm pellets were suspended in BWW medium (at a concentration of 10×10^6 sperm/ml), divided into two equivalent aliquots, and allowed to recover for 15 minutes. One aliquot was then incubated at 37° C. with ATP (2.5 mM final concentration from a 100 mM stock solution made by diluting ATP with physiological solution (0.9% NaCl in distilled water) and the second aliquot was incubated at 37° C. with same amount of physiological solution only (as a negative control). After 60 minutes incubation, sperm motility parameters were determined as described above. The effects of extracellular ATP on sperm motility parameters of sperm from subjects with asthenozoospermia after washing from seminal fluid and resuspension in BWW medium (10×10^6 sperm/ml) were examined.", "data": [{"smiles": "Nc1ncnc2c1ncn2[C@@H]1O[C@H](COP(=O)(O)OP(=O)(O)OP(=O)(O)O)[C@@H](O)[C@H]1O", "note": "[ATP, adenosine 5′-triphosphate]", "values": [{"measurement": "effect on curvilinear velocity (VCL)", "value": "No significant effects"}, {"measurement": "effect on lateral sperm head displacement (ALH)", "value": "No significant effects"}, {"measurement": "progressive velocity (VSL)", "setting": "37° C., washed sperm in BWW medium, 27 asthenozoospermic subjects, control 23.81±6.04, p=0.0024", "value": "28.85±7.27", "unit": "μm/sec"}, {"measurement": "linearity (LIN)", "setting": "37° C., washed sperm in BWW medium, control 29.59±6.25, p=0.0004", "value": "37.7±7.9"}]}]}
